Test results: ChEMBL document CHEMBL5614457, “New Directions in Antibacterial, Anticancer, and Gene Editing Therapies” (ACS Med Chem Lett, 2024)

molecular target: Protein cereblon/B-cell lymphoma 6 protein (Homo sapiens) (UniProt Q96SW2+P41182); assay: PROTAC activity at CRBN/N-terminal-HibiT tagged BCL6 in human HT-1080 cells transfected with pLV-UBC-N-HiBiT- BCL6-PGK-puro assessed as degradation of protein by measuring ratio of trough concentration of protein in cell compared to the concentration of protein before the cell contact with compound (Ymin) incubated for 5 hrs by luminescence based NANO-Glo HIBiT lytic detection assay

Row | SMILES | Activity [%]
1 | Cn1nc(C2CCC(=O)NC2=O)c2cccc(N3CCC(CN4CCN(c5ncc(F)c(Nc6ccc7c(c6)c6c(c(=O)n7C)OCC(F)(F)[C@H](C7CC7)N6)n5)CC4)CC3)c21 (some centres not stated) | < 30
2 | Cn1nc(C2CCC(=O)NC2=O)c2cccc(N3CCC(OC4CCN(c5ncc(Cl)c(Nc6ccc7c(c6)c6c(c(=O)n7C)OCC(F)(F)[C@H](C7CC7)N6)n5)CC4)CC3)c21 (some centres not stated) | < 30
3 | Cn1nc(C2CCC(=O)NC2=O)c2cccc(C3CCN(CC4CCN(c5ncc(F)c(Nc6ccc7c(c6)c6c(c(=O)n7C)OCC(F)(F)[C@H](C7CC7)N6)n5)CC4)CC3)c21 (some centres not stated) | < 30
4 | Cn1nc(C2CCC(=O)NC2=O)c2ccc(N3CCC(CN4CCN(c5ncc(F)c(Nc6ccc7c(c6)c6c(c(=O)n7C)OCC(F)(F)[C@H](C7CC7)N6)n5)CC4)CC3)cc21 (some centres not stated) | 30
5 | Cn1nc(C2CCC(=O)NC2=O)c2cccc(N3CCC(CN4CCN(c5cc(Nc6ccc7c(c6)c6c(c(=O)n7C)OCC(F)(F)[C@H](C7CC7)N6)c(Cl)cn5)CC4)CC3)c21 (some centres not stated) | < 30
6 | Cn1nc(C2CCC(=O)NC2=O)c2ccc(N3CCC(CN4CCN(c5cc(Nc6ccc7c(c6)c6c(c(=O)n7C)OCC(F)(F)[C@H](C7CC7)N6)c(Cl)cn5)CC4)CC3)cc21 (some centres not stated) | < 30
7 | C[C@@H](C1CCN(c2cccc3c(C4CCC(=O)NC4=O)nn(C)c23)CC1)N1CCN(c2ncc(Cl)c(Nc3ccc4c(c3)c3c(c(=O)n4C)OCC(F)(F)[C@H](C4CC4)N3)n2)CC1 (some centres not stated) | < 30
8 | Cn1nc(C2CCC(=O)NC2=O)c2cccc(N3CCN(CC4CCN(c5ncc(Cl)c(Nc6ccc7c(c6)c6c(c(=O)n7C)OCC(F)(F)[C@H](C7CC7)N6)n5)CC4)CC3)c21 (some centres not stated) | < 30
9 | Cn1c(=O)c2c(c3cc(Nc4nc(N5CCN(CC6CCN(c7cccc8c7C(=O)N(C7CCC(=O)NC7=O)C8=O)CC6)CC5)ncc4Cl)ccc31)N[C@@H](C1CC1)C(F)(F)CO2 (some centres not stated) | < 30
10 | Cn1nc(C2CCC(=O)NC2=O)c2cccc(N3CCC(CN4CCN(c5ncc(Br)c(Nc6ccc7c(c6)c6c(c(=O)n7C)OCC(F)(F)[C@H](C7CC7)N6)n5)CC4)CC3)c21 (some centres not stated) | < 30
11 | Cn1nc(C2CCC(=O)NC2=O)c2cccc(C3CCN(CC4CCN(c5ncc(Cl)c(Nc6ccc7c(c6)c6c(c(=O)n7C)OCC(F)(F)[C@H](C7CC7)N6)n5)CC4)CC3)c21 (some centres not stated) | < 30
12 | Cn1nc(C2CCC(=O)NC2=O)c2cccc(N3CCC(CN4CCN(c5ncc(Cl)c(Nc6ccc7c(c6)c6c(c(=O)n7C)OCC(F)(F)[C@H](C7CC7)N6)n5)CC4)CC3)c21 (some centres not stated) | < 30
